Results taken from patent publication US20230014430A1, “Methods and Compositions for Generating Functionally Mature Beta Cells and Uses Thereof” (Washington University, priority 2019, published 2023).

B1: TGFβ2: TGFβ agonist (growth factor) (protein, UniProt P61812 303-414, looked up)
Transforming growth factor …: ALDAAYCFRNVQDNCCLRPLYIDFKRDLGWKWIHEPKGYNANFCAGACPYLWSSDTQHSRVLSLYNTINPEASASPCCVSQDLEPLTILYYIGKTPKIEQLSNMIVKSCKCS

Legend:
Assay type in all cases: cell-based, human
[1] = tested on: SIX2 gene expression; test: SC-β cells treated with a library of compounds to identify SIX2 regulators; settings: FIG. 11
Experimental: FIG. 11. Regulators of SIX2. SC-β cells were treated with a library of compound to identify SIX2 regulators. […] (B) Negative Regulators of SIX2 gene expression. (C) Flow cytometry of SC-β cells treated with SIX2 regulators.
Here, regulators of SIX2 gene expression were discovered (see e.g., FIG. 11). It was discovered that (1) regulators of SIX2 affect the % of SC-β cells generated (see e.g., FIG. 12); (2) SIX2 regulators influence SC-β cell function (see e.g., FIG. 13); (3) SIX2 is expressed by only a fraction of C-peptide positive cells (SC-β cells) (see e.g., FIG. 12A, FIG. 2B); and (4) SIX2+ cells secrete insulin in response to glucose when single cell dispersed and plated down (see e.g., FIG. 14).

[2] = tested on: SC-β cells; test: Dynamic glucose-stimulated insulin secretion of stage 6 cells (perifusion); settings: HUES8 hESC and 1013-4FA hiPSC lines, vs sh-ctrl
Experimental: (§1) Gene KD was performed similar to as previously described (Velazco-Cruz et al., 2019). pLKO.1 TRC plasmids containing shRNA sequences targeting GFP (sh-ctrl) and human SIX2 (sh-SIX2-1 and sh-SIX2-2) were received from the RNAi Core at the Washington University. sh-ctrl, […] (SEQ ID NO: 35); sh-SIX2-1, […] (SEQ ID NO: 36); sh-SIX2-2, […] (SEQ ID NO: 37). Viral particles were generated using Lenti-X 293T cells (Takara; 632180) cultured in DMEM (MilliporeSigma; D6429) with 10% heat inactivated fetal bovine serum (MilliporeSigma; F4135). Confluent Lenti-X 293T cells were transfected with […] of shRNA plasmid, […] of psPAX2 (Addgene; 12260), and 1.5 μg pMD2.G (Addgene; 12259) packaging plasmids in 600 μL of Opti-MEM (Life Technologies; 31985-070) and 48 μL of Polyethylenimine ‘Max’ MW 40,000 Da (Polysciences; 24765-2). 16 hours post transfection media was switched. Viral containing supernatant was collected at 96 hours post transfection and concentrated using Lenti-X concentrator (Takara; 631232). Collected lentivirus was tittered using Lenti-X qRT-PCR Titration Kit (Takara; 631235). […]
Measurements were performed as previously described (Velazco-Cruz et al., 2019). […] Insulin was quantified with a human insulin ELISA (ALPCO; 80-INSHU-E10.1). DNA quantification was performed by lysing the cells and measuring with the Quant-iT Picogreen dsDNA assay kit (Invitrogen; P7589). […]

[3] = tested on: SC-β cells; test: Static glucose-stimulated insulin secretion of stage 6 cells; settings: HUES8 hESC and 1013-4FA hiPSC lines, vs sh-ctrl
Experimental: as §1
Measurements were performed as previously described (Velazco-Cruz et al., 2019). […] Insulin was quantified with a human insulin ELISA (ALPCO; 80-INSHU-E10.1). Cell quantification was performed by dispersing with trypLE and counting with the Vi-Cell XR.

Row | Molecule | regulation of SIX2 expression in SC-β cells [1] | dynamic glucose-stimulated insulin secretion [2] | static glucose-stimulated insulin secretion [3]
1 | Nc1nccc2c1ncn2[C@@H]1C=C(CO)[C@@H](O)[C@H]1O [3-Deazaneplanocin A] | positive regulator |  | 
2 | Nc1ncn([C@@H]2O[C@H](CO)[C@@H](O)[C@H]2O)c(=O)n1 [5-Azacytidine] | positive regulator |  | 
3 | Cc1c[nH]c(-c2cnc(NCCNc3ccc(C#N)cn3)nc2-c2ccc(Cl)cc2Cl)n1 [CHIR99021] | positive regulator |  | 
4 | Cc1ccc(-n2nc(C(C)(C)C)cc2NC(=O)Nc2ccc(OCCN3CCOCC3)c3ccccc23)cc1 [doramapimod] | positive regulators |  | 
5 | AZD4547 | positive regulators |  | 
6 | TGFβ1: TGFβ agonist (growth factor) | positive regulators |  | 
7 | sh-SIX2-1: lentiviral pLKO.1 TRC shRNA targeting human SIX2, CAACGAGAACTCCAATTCTAA (SEQ ID NO: 36) |  | significant reductions | significant reductions
8 | sh-SIX2-2: lentiviral pLKO.1 TRC shRNA targeting human SIX2, GAGCACCTTCACAAGAATGAA (SEQ ID NO: 37) |  | significant reductions | significant reductions
9 | B1 | positive regulators |  | 
